# In PMC6365646, “Oxidative Pathways of Deoxyribose and Deoxyribonate Catabolism” (mSystems, 2019):
# Biological target: T1, deoxyribose dehydrogenase (iorAB-like dehydrogenase) (Pseudomonas simiae, UniProt A0A1N7UDX6)
# T1 construct: gene PS417_10885; each subunit His-tagged (pET32a) in E. coli BL21(DE3), bands at 80 kDa (10885) and 17 kDa (10890); not purified, two clarified lysates mixed; native cytochrome c PS417_10880 not included; with Isoquinoline 1-oxidoreductase subunit alpha-like (deoxyribose dehydrogenase small subunit)
# T1 sequence (A0A1N7UDX6 2-739): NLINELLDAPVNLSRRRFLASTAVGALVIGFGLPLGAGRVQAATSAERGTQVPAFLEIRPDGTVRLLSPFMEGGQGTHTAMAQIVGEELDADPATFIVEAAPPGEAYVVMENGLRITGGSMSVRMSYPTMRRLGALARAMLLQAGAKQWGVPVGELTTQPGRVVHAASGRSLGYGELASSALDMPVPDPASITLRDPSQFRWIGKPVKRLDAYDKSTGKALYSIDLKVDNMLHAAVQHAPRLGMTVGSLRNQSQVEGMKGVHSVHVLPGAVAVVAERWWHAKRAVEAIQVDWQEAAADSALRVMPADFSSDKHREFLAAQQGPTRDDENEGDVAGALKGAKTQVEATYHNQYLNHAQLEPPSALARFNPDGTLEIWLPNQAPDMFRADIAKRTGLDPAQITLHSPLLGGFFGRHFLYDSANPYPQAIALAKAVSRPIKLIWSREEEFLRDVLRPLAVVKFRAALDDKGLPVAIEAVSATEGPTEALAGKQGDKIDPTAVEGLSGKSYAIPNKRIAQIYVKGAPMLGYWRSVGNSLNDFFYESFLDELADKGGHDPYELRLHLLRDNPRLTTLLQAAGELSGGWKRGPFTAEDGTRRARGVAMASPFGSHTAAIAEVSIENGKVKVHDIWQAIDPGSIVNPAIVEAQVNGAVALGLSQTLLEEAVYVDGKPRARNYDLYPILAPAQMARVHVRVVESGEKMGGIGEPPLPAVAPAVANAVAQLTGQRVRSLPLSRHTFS
# T1 sequence (A0A1N7UJP4 1-151 partner): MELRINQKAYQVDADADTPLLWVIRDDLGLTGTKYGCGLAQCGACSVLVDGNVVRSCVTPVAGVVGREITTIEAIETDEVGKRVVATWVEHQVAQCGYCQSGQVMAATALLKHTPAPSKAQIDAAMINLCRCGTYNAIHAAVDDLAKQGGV
# Assay: LC-MS/MS detection of deoxyribonate product, mixed E. coli lysates against empty-vector lysate
# Type: biochemical
# Details: 1 mM deoxyribose, 100 uM phenazine methosulfate as electron acceptor, 100 mM NH4HCO3, room temperature, 1 h, with or without lactonase
smiles,measurement,setting,value
OC[C@H]1OC(O)C[C@@H]1O (stereo partly drawn) [2-deoxy-D-ribose],"LC-MS/MS detection of deoxyribonate product, mixed E. coli lysates against empty",,The iorAB-like dehydrogenase converted deoxyribose to a compound with the same mass-to-charge ratio
O=C(O)C[C@H](O)[C@H](O)CO [2-deoxy-D-ribonate],"LC-MS/MS detection of deoxyribonate product, mixed E. coli lysates against empty",may form through spontaneous or lysate hydrolysis of deoxyribono,this product had a fragmentation pattern very similar to that of a 2-deoxy-D-ribonate standard
